Experimental findings from patent publication US9839642B2, “Beta-tetrazolyl-propionic acids as metallo-beta-lactamase inhibitors” (priority 2014, dated 2017) are described below.

The target in test [1] is IMP-1 (Serratia marcescens, UniProt P52699). Description: Enzyme activity: determination of IC50, fluorescence assay with CCF2-FA substrate. The format is biochemical. The settings on record: enzyme 2 pM, CCF2-FA 1.25 μM, 2 hours at 25° C.; read-out: IMP1 IC50. In outline:
(§1)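 Enzyme at 1 pM (NDM-1), 2 pM (IMP-1) or 30 pM (VIM-1) was incubated with inhibitor (20 μM to 0.00063 μM) and 1.25 μM CCF2-FA in 100 mM KH2PO4 pH 7, 0.005% Tween-20, 10 μM ZnSO4 for 2 hours at 25° C. Fluorescence was read at ex 405/em 460 nm; IC50 from 4-parameter fit.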

Test [2] addresses NDM-1 (Klebsiella pneumoniae, UniProt C7C422). The test is described as above. It is filed as biochemical. Conditions: enzyme 1 pM, CCF2-FA 1.25 μM, 2 hours at 25° C.; read-out: NDM1 IC50. In outline:
as §1

Test [3] has as its target VIM-1 (Pseudomonas aeruginosa, UniProt A0A0F7KYQ8). Described as above. The format is biochemical. Conditions: enzyme 30 pM, CCF2-FA 1.25 μM, 2 hours at 25° C.; read-out: VIM1 IC50. Summed up: as §1
In test [4] the test system is Escherichia coli expressing NDM-1 (CLB30016). Description: Antibiotic potentiation activity: synergistic concentration (MITC95) with imipenem, growth by OD600. The format is cell-based. The settings on record: 95% inhibition of bacterial growth, strain CLB30016. In outline: (§2)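 Colonies from overnight agar plates (35 °C) were suspended in saline and diluted 1:100 into 1.1× CAMHB. Inhibitor (final 200 μM to 0.195 μM) was combined with imipenem at 1 or 4 μg/ml, incubated 22–24 h at 35 °C, and absorbance read; MITC95 is the lowest inhibitor concentration giving 95% growth inhibition.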

Test [5] concerns Klebsiella pneumoniae expressing VIM-1 (IHMA599644). The test is described as above. The format is cell-based. The settings on record: 95% inhibition of bacterial growth, strain IHMA599644. Summed up: as §2
Test [6] concerns Serratia marcescens expressing IMP-1 (CL5741). Described as above. The settings on record: 95% inhibition of bacterial growth, strain CL5741. The format is cell-based. Summed up: as §2

The IC50 is the concentration that inhibits the measured activity by half.

IMP-1, sequence (P52699 19-246, looked up, species assumed): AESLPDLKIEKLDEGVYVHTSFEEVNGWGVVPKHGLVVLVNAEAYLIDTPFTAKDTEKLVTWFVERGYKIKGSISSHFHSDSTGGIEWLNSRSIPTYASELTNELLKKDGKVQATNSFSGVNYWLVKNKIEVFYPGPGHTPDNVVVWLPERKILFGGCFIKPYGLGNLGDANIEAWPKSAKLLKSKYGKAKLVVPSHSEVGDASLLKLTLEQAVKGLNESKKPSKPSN
NDM-1, sequence (C7C422 29-270, looked up, species assumed): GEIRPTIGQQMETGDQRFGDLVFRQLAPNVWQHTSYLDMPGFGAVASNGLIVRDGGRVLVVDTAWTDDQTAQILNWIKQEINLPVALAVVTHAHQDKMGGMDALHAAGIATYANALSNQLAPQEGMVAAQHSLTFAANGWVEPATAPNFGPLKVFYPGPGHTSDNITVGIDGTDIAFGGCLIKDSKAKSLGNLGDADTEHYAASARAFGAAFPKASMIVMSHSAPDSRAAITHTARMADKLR

Regarding `CCC[C@H](C(=O)O)[C@H](Cc1ccc(NC(C)CN(C)C)cc1)c1nn[nH]n1` (stereo partly drawn) [Example 224, (2S)-2-[(1S)-2-(4-{[2-(dimethylamino)-1-methylethyl]amino}phenyl)-1-(2H-tetrazol-5-yl)ethyl]pentanoic acid], the results for the half-maximal inhibitory concentration (IC50) in test [1], in test [2] and in test [3] were 1100 nM, 1000 nM and 82 nM, respectively. The “NDM1 EC30016 MITC95” value in test [4] was 25 µM. Further, the “VIM1 KP599644 MITC95” value in test [5] turned out to be 50 µM. For the same compound, the “IMP1 SM5741 MITC95” value in test [6] stood at 18.8 µM.

As to `CCC[C@H](C(=O)O)[C@H](Cc1ccc(N2CCN(CCO)CC2)cc1)c1nn[nH]n1` [Example 225, (2S)-2-[(1S)-2-{4-[4-(2-hydroxyethyl)piperazin-1-yl]phenyl}-1-(2H-tetrazol-5-yl)ethyl]pentanoic acid], the IC50 amounted to 280 nM in test [1], 110 nM in test [2] and 66 nM in test [3]. For the same compound, the “NDM1 EC30016 MITC95” value in test [4] was 25 µM. In addition, the “VIM1 KP599644 MITC95” value in test [5] turned out to be 50 µM. Further, in test [6], the “IMP1 SM5741 MITC95” value is 12.5 µM.

For `CCC[C@H](C(=O)O)[C@H](Cc1ccc(N2CCN(c3ccccc3)CC2)cc1)c1nn[nH]n1` [Example 226, (2S)-2-[(1S)-2-[4-(4-phenylpiperazin-1-yl)phenyl]-1-(2H-tetrazol-5-yl)ethyl]pentanoic acid], the half-inhibitory concentration (IC50) worked out at 39 nM in test [1], 20 nM in test [2] and 66 nM in test [3]. For the same compound, the “NDM1 EC30016 MITC95” value in test [4] turned out to be 38 µM. Further, the “VIM1 KP599644 MITC95” value in test [5] is greater than 200 µM. The “IMP1 SM5741 MITC95” value in test [6] was 3.1 µM.

Regarding `CCC[C@H](C(=O)O)[C@H](Cc1ccc(N2CCN(c3ccncc3)CC2)cc1)c1nn[nH]n1` [Example 227, (2S)-2-[(1S)-2-[4-(4-pyridin-4-ylpiperazin-1-yl)phenyl]-1-(2H-tetrazol-5-yl)ethyl]pentanoic acid], the concentration for half-maximal inhibition (IC50) turned out to be 380 nM in test [1], 54 nM in test [2] and 51 nM in test [3]. Moreover, in test [4], the “NDM1 EC30016 MITC95” value was 16 µM. For the same compound, in test [5], the “VIM1 KP599644 MITC95” value was found to be 75 µM. Besides, the “IMP1 SM5741 MITC95” value in test [6] is 12.5 µM.

With `CCC[C@H](C(=O)O)[C@H](Cc1ccc(N2CCN(C(C)=O)CC2)cc1)c1nn[nH]n1` [Example 228, (2S)-2-[(1S)-2-[4-(4-acetylpiperazin-1-yl)phenyl]-1-(2H-tetrazol-5-yl)ethyl]pentanoic acid], the IC50 amounted to 220 nM in test [1], 33 nM in test [2] and 15 nM in test [3]. In test [4], the “NDM1 EC30016 MITC95” value is 75 µM. Also, the “VIM1 KP599644 MITC95” value in test [5] is 200 µM. Besides, the “IMP1 SM5741 MITC95” value in test [6] is 16 µM.

On to `CCC[C@H](C(=O)O)[C@H](Cc1ccc(N2CCC[C@@H](N)C2)cc1)c1nn[nH]n1` [Example 229, (2S)-2-[(1S)-2-{4-[(3R)-3-aminopiperidin-1-yl]phenyl}-1-(2H-tetrazol-5-yl)ethyl]pentanoic acid], for which the concentration for half-maximal inhibition (IC50) in test [1] worked out at 1200 nM; in test [2], 370 nM; in test [3] it was 25 nM. Also, the “NDM1 EC30016 MITC95” value in test [4] turned out to be 12.5 µM. Further, the “VIM1 KP599644 MITC95” value in test [5] was found to be 25 µM. In addition, the “IMP1 SM5741 MITC95” value in test [6] worked out at 25 µM.

For the compound `CCC[C@H](C(=O)O)[C@H](Cc1ccc(N2CCC[C@H](N)C2)cc1)c1nn[nH]n1` [Example 230, (2S)-2-[(1S)-2-{4-[(3S)-3-aminopiperidin-1-yl]phenyl}-1-(2H-tetrazol-5-yl)ethyl]pentanoic acid], the IC50 in test [1] turned out to be 1100 nM; in test [2], 300 nM; in test [3] it was 25 nM. Further, in test [4], the “NDM1 EC30016 MITC95” value was 31 µM. Also, the “VIM1 KP599644 MITC95” value in test [5] worked out at 25 µM. Moreover, in test [6], the “IMP1 SM5741 MITC95” value was 25 µM.

With `CCC[C@H](C(=O)O)[C@H](Cc1ccc(N2CCN(C)CC2)cc1)c1nn[nH]n1` [Example 231, (2S)-2-[(1S)-2-[4-(4-methylpiperazin-1-yl)phenyl]-1-(2H-tetrazol-5-yl)ethyl]pentanoic acid], the 50% inhibitory concentration (IC50) came to 450 nM in test [1], 160 nM in test [2] and 69 nM in test [3]. Moreover, the “NDM1 EC30016 MITC95” value in test [4] stood at 18.8 µM. Also, the “VIM1 KP599644 MITC95” value in test [5] stood at 50 µM. Also, the “IMP1 SM5741 MITC95” value in test [6] was determined as 18.8 µM.
